In brackets after ≈: the same amount, converted by molar mass.

The assay concerns the target EGFR (UniProt P00533).

Chain of EGFR (P00533 whole entry, looked up): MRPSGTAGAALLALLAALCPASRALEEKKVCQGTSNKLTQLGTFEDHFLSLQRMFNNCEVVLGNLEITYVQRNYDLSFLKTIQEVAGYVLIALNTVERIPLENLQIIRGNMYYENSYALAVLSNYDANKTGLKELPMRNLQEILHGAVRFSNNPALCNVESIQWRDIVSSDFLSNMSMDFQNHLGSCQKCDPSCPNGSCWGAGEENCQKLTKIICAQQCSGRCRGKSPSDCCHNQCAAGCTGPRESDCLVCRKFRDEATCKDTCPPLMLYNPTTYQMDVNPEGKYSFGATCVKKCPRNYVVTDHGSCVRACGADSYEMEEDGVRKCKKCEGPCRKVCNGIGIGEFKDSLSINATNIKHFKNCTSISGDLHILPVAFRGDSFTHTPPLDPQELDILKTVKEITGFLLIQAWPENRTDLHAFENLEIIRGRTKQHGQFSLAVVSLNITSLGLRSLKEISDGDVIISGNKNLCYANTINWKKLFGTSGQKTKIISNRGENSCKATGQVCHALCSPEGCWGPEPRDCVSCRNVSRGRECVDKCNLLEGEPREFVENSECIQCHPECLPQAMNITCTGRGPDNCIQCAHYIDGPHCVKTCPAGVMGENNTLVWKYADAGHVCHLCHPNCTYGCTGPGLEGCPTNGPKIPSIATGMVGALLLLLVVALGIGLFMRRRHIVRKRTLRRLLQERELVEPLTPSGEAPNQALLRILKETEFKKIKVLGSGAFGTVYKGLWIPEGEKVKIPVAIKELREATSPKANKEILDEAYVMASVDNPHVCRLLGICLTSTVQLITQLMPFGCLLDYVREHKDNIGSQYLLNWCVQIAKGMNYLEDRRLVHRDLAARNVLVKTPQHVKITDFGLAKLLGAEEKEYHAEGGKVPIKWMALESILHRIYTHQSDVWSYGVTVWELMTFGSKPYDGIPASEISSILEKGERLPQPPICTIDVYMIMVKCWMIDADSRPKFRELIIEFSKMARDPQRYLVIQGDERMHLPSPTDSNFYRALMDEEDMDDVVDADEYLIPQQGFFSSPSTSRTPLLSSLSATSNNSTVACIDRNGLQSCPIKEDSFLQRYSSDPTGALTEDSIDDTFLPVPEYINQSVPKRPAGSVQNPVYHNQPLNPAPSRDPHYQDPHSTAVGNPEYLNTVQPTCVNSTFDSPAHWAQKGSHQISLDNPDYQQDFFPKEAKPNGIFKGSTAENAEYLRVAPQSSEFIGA

In general, IC50 refers to the point on the concentration scale where inhibition reaches its midpoint. A higher IC50 goes with weaker potency. Turning to `COc1cc(Nc2ncnc(NC(=O)Nc3ccccc3)n2)cc(OC)c1OC`, the IC50 is more than 4.5 µg/mL.

The compound `NS(=O)(=O)c1ccc(Nc2ncnc(-n3c(=O)[nH]c4ccccc43)n2)cc1` came in with a half-inhibitory concentration (IC50) of more than 4.5 µg/mL. For the compound `CN(c1cccc(Cl)c1)c1ncnc(Nc2ccc(F)c(C(F)(F)F)c2)n1`, the IC50 fell in the range of 0.4 to 2.4 µg/mL (≈ 1.01 to 6.03 µM). For `Cc1cccc(Nc2ncnc(Nc3cccc(Br)c3)n2)c1`, the IC50 is less than 0.4 µg/mL.

Regarding `c1coc(-c2cc(Nc3ncnc(Nc4ccc(N5CCOCC5)cc4)n3)[nH]n2)c1`, the IC50 fell in the range of 2.4 to 3.5 µg/mL (≈ 5.93 to 8.65 µM). The compound `CC(=O)c1ccc(Nc2ncnc(Nc3ccc4c(cnn4Cc4ccccc4)c3)n2)cc1` registered a half-maximal inhibitory concentration (IC50) of less than 0.4 µg/mL. As for `CC(C)Nc1ncccc1-c1ncnc(Nc2cccc(Cn3ccnn3)c2)n1`, the figure is 2.4 to 3.5 µg/mL (≈ 6.19 to 9.03 µM).

As for `COc1cc(Nc2ncnc(-n3c(NCc4ccc([N+](=O)[O-])cc4)nc4ccccc43)n2)cc(OC)c1OC`, the IC50 is more than 4.5 µg/mL. `COc1cc(Nc2ncnc(-c3cccnc3NCc3ccccn3)n2)cc(OC)c1OC` yielded an IC50 of more than 4.5 µg/mL.

Regarding `COc1cc(Nc2ncnc(-n3c(NCc4ccc(O)cc4)nc4ccccc43)n2)cc(OC)c1OC`, the concentration for half-maximal inhibition (IC50) is more than 4.5 µg/mL.

In turn, `CC(C)(C)c1cc(Nc2ncnc(Nc3cccc(CC(=O)O)c3)n2)[nH]n1` showed a 50% inhibitory concentration (IC50) of 0.4 to 2.4 µg/mL (≈ 1.09 to 6.53 µM). `COc1cc(Nc2ncnc(-c3cccnc3NC3CCCCC3)n2)cc(OC)c1OC`: the half-maximal inhibitory concentration (IC50) was more than 4.5 µg/mL. Regarding `COC(=O)c1ccc(-c2cc(Nc3ncnc(NCc4cccnc4)n3)[nH]n2)cc1`, the half-inhibitory concentration (IC50) was more than 4.5 µg/mL. `CCOC(=O)C(Nc1nc2ccccc2n1-c1ncnc(Nc2cc(OC)c(OC)c(OC)c2)n1)c1ccccc1` (stereo unspecified) gave a 50% inhibitory concentration (IC50) of more than 4.5 µg/mL. In turn, `Nc1ncnc(Nc2cc(Cl)ccc2O)n1` yielded a 50% inhibitory concentration (IC50) of more than 4.5 µg/mL. Then `COCCOc1ccc(Nc2ncnc(-c3ccccc3)n2)cc1`, with more than 4.5 µg/mL; and `CCN1CCCC1CNc1ncnc(Nc2ccc(OC)c(OC)c2)n1` (stereo unspecified), with more than 4.5 µg/mL; and `Fc1ccc(Nc2ncnc(Nc3ccc4[nH]ccc4c3)n2)cc1Cl`, with less than 0.4 µg/mL.

Take `COc1cc(Nc2ncnc(Nc3cc(Cl)c(O)c(Cl)c3)n2)cc(OC)c1OC`: the IC50 was less than 0.4 µg/mL. `COc1cc(Nc2ncnc(Nc3nccs3)n2)cc(OC)c1OC` had an IC50 of more than 4.5 µg/mL. With `OCc1ccc(Nc2ncnc(-c3ccccc3)n2)cc1`, the IC50 is more than 4.5 µg/mL. As for `CC(C)(C)OC(=O)NCCCNc1ncnc(-c2ccccc2)n1`, the figure is more than 4.5 µg/mL; as for `CN(c1cccc(Cl)c1)c1ncnc(NCCN2CCCCC2)n1`, 2.4 to 3.5 µg/mL (≈ 6.92 to 10.1 µM); as for `COc1cc(Nc2ncnc(-n3c(Nc4ccc5[nH]ncc5c4)nc4ccccc43)n2)cc(OC)c1OC`, 3.5 to 4.5 µg/mL (≈ 6.87 to 8.83 µM). `COc1cc(Nc2ncnc(-n3c(NCCc4ccccn4)nc4ccccc43)n2)cc(OC)c1OC` displayed a half-maximal inhibitory concentration (IC50) of more than 4.5 µg/mL. As for `COc1cc(Nc2ncnc(NN3CCCC3)n2)cc(OC)c1OC`, the IC50 was more than 4.5 µg/mL. For the compound `COc1ccc(Nc2nc3ccccc3n2-c2ncnc(Nc3cc(OC)c(OC)c(OC)c3)n2)cc1`, the IC50 was more than 4.5 µg/mL. For `COc1cc(Nc2ncnc(-c3ccccc3)n2)cc(OC)c1`, the IC50 is more than 4.5 µg/mL. Regarding `COc1cc(Nc2ncnc(-n3cc(C#N)c4ccccc43)n2)cc(OC)c1OC`, the IC50 was more than 4.5 µg/mL. As for `CN1CCN(Cc2cccc(Nc3ncnc(Nc4cccc5ccccc45)n3)c2)CC1`, the figure is more than 4.5 µg/mL.

Compound `COc1cc(Nc2ncnc(-c3ccccc3)n2)cc(OC)c1OC` gave an IC50 of more than 4.5 µg/mL.

Compound `COC(=O)Cc1cccc(Nc2ncnc(-n3c(N)nc4ccccc43)n2)c1` returned an IC50 of 2.4 to 3.5 µg/mL (≈ 6.39 to 9.32 µM). Then `COc1cc(Nc2ncnc(Nc3ccc(OCC(=O)Nc4ccccc4)cc3)n2)cc(OC)c1OC`, with 0.4 to 2.4 µg/mL (≈ 0.796 to 4.78 µM).

The compound `COc1cc(Nc2ncnc(-n3c(NCc4ccccn4)nc4ccccc43)n2)cc(OC)c1OCCn1ccnn1` gave an IC50 of more than 4.5 µg/mL.

As to `COc1cc(Nc2ncnc(N)n2)cc(OC)c1OC`, the IC50 was more than 4.5 µg/mL. As for `CC(C)(C)OC(=O)NCc1cccc(Nc2ncnc(Nc3cc(-c4ccco4)n[nH]3)n2)c1`, the IC50 was 0.4 to 2.4 µg/mL (≈ 0.892 to 5.35 µM). `Cc1ccc2c(c1)CCCN2c1ncnc(NCc2cccnc2)n1` showed a half-maximal inhibitory concentration (IC50) of more than 4.5 µg/mL. Then `COc1ccc(Nc2ncnc(Nc3cc(OC)c(OC)c(OC)c3)n2)cc1OCCN1CCOCC1`, with 3.5 to 4.5 µg/mL (≈ 6.83 to 8.78 µM). On to `Fc1ccc(Nc2ncnc(Cl)n2)cc1Cl`, for which the half-maximal inhibitory concentration (IC50) was more than 4.5 µg/mL. With `COc1cc(Nc2ncnc(Nc3ccc(Cl)cc3F)n2)cc(OC)c1OC`, the concentration for half-maximal inhibition (IC50) was less than 0.4 µg/mL.

In the case of `COc1cc(Nc2ncnc(-n3c(NCCc4ccccc4)nc4ccccc43)n2)cc(OC)c1OC`, the IC50 lay in the range of 0.4 to 2.4 µg/mL (≈ 0.804 to 4.82 µM). For the compound `FC(F)(F)c1ccc(Cl)c(Nc2ncnc(-n3cccc3)n2)c1`, the IC50 was more than 4.5 µg/mL. For `COc1cc(Nc2ncnc(N3CCCCC3)n2)cc(OC)c1OC`, the IC50 was more than 4.5 µg/mL. Compound `CCc1ccc(Nc2nc3ccccc3n2-c2ncnc(Nc3cc(OC)c(OC)c(OC)c3)n2)cc1` came in with an IC50 of less than 0.4 µg/mL. Compound `COc1cc(Nc2ncnc(-n3c(Nc4cccc(F)c4)nc4ccccc43)n2)cc(OC)c1OC` registered an IC50 of 2.4 to 3.5 µg/mL (≈ 4.92 to 7.18 µM). `CC(=O)Nc1ccc(Nc2ncnc(-n3c(N)nc4ccccc43)n2)cc1` registered an IC50 of more than 4.5 µg/mL.

The values above are taken from the Kinase Knowledgebase extract (Sharma et al. 2016).
